Test results as given in patent US9421222B2, “Treatment of compartment syndrome” (LONDON HEALTH SCIENCES CENTRE RESEARCH INC., priority 2013, dated 2016).
“Also recorded” adds a separate entry of the source.

Columns and labels:
Assay type in all cases: in vivo
[1] = tested on: CS-challenged skeletal muscle (EDL); assay: Rat compartment syndrome model, intravital video microscopy (IVVM) of EDL muscle
Description: (§1) The experimental protocol was approved by the Council on Animal Care of the University of Western Ontario, and has been previously described in detail. Briefly, male Wistar rats (body weight 180-250 g) were anesthetized by inhalational isoflurane (5% induction, 2% maintenance) in 1:1 oxygen/nitrogen mixture. Left carotid artery was cannulated to allow for the monitoring of systemic blood pressure, fluid administration and blood sampling.
(§2) Compartment pressure monitoring probe (Synthes, Westchester Pa.) was inserted into the posterior compartment via gauge 16 angiocatheter (BD), while gauge 24 angiocatheter (BD) attached to an IV line was placed into the anterior compartment of the rat hind limb. CS was induced by an infusion of isotonic saline, leading to an elevation of intra-compartmental pressure (ICP) to 30 mmHg. Elevated ICP was maintained for 2 hours. Fasciotomy was performed to decompress the hind limb compartments; the muscles were allowed to reperfuse for 45 minutes, followed by intravital video microscopy.
(§3) Rats were randomly assigned to one of four experimental groups: sham (n=4), CS (n=4), CS+CORM-3 (n=8) and CS+iCORM-3 (n=8).
The extensor digitorum longus (EDL) muscle was dissected to the level of its distal tendon, which was tied with a suture and cut from its bony insertion. The animal was transferred onto the stage of an inverted microscope (Nikon™); the EDL was reflected into a saline bath containing 5 μg/ml each of the fluorescent vital dyes bisbenzimide (BB; exc. 343 nm, em. 483 nm) and ethidium bromide (EB; exc. 482 nm, em. 616 nm). BB stains the nuclei of all cells while EB stains the nuclei of only those cells with damaged cell membrane. Thus, EB/BB ratio provided an index of tissue injury.
Microvascular perfusion and leukocytes within the post-capillary venules were recorded by translumination with 20× and 40× objectives, respectively, in five adjacent fields of view. Fluorescence microscopy was used to visualize the BB and EB from the same fields of view that had been selected for the measurement of capillary perfusion. At the conclusion of the experiment, rats were euthanized by an overdose of anesthetic agent.
Capillary perfusion was assessed by counting the number of continuously-perfused (CPC), intermittently-perfused (IPC) and non-perfused (NPC) capillaries that crossed three parallel lines drawn perpendicular to the capillary axis on the video monitor, and was expressed as % of total capillaries. Tissue injury was assessed by counting the number of EB- and BB-labelled nuclei, and expressed as EB/BB ratio. Leukocyte activation was assessed by counting the numbers of rolling and adherent leukocytes in post-capillary venules and expressed per 1000 μm^2. Venular area was measured using ImageJ (NIH, Bethesda, Md.). A leukocyte was considered adherent if it remained stationary for at least 30 seconds, and a cell was considered rolling if it remained in contact with the wall of the vessel during its movement.

[2] = Systemic leukocyte counts, hemoglobin and carboxyhemoglobin in rat CS model
Description: as §1, §2, §3
Two hours of elevated ICP were followed by fasciotomy, injection of CORM-3 (or iCORM-3) and 45 min reperfusion. CS-associated rise in systemic leukocytes was reversed by CORM-3 application (*p<0.01 from sham; †p<0.05 from CS+iCORM-3). CORM-3 and iCORM-3 caused no changes in systemic levels of COHb. LKC, leukocyte counts; COHb, carboxyhemoglobin.

[3] = tested on: TNF-α; assay: Serum TNF-α (ELISA) in rat CS model; conditions: 30 and 45 minutes post-fasciotomy, 10 mg/kg IP
Method: TNF-α levels were measured from arterial blood samples drawn at 9 time points: (1) baseline, (2) 15 minutes into CS, (3) 45 minutes into CS, (4) 90 minutes into CS, (5) 2 hours into CS-just prior to fasciotomy and CORM-3 (or iCORM-3) injection, (6) 10 minutes post-fasciotomy, (7) 20 minutes post fasciotomy, (8) 30 minutes post fasciotomy, (9) 45 minutes post fasciotomy, just before IVVM. TNF-α was assessed using enzyme-linked immunosorbent assay (ELISA, Pierce Biotechnology, c/o Thermo Scientific, Rockford, Ill.) according to manufacturer's instructions. The TNF-α ELISA was sensitive to less than […].

[4] = tested on: compartment syndrome; assay: Porcine model of compartment syndrome: PMN activation and capillary perfusion (IVVM); conditions: pig, 6 h elevated ICP, 10 mg/kg
Method: (§4) Following the basic surgical setup (anesthesia, intubation, auricular vein and femoral artery catheterization), the animals undergo 6 hours of elevated intra-compartmental pressure (i.e. CS), followed by fasciotomy and reperfusion. The time interval was chosen in order to closely mimic the condition in human patients. CORM-3 (or iCORM-3), 10 mg/kg of animal is applied prior to fasciotomy. Blood is sampled at various time intervals (baseline, 1 hr CS, 2 hr CS, 3 hr CS, 4 hr CS, 5 hr CS, 6 hr CS/fasciotomy, and every 10-15 min post-fasciotomy, for a total of 20 samples per animal), in order to monitor leukocyte activation and serum TNF-α levels. IVVM is carried out at 3 hours post-fasciotomy.

[5] = tested on: TNF-α; assay: Serum TNF-α time course in porcine model of CS; conditions: pig, 6 h elevated ICP, 10 mg/kg, 3 h reperfusion
Method: as §4

[6] = tested on: compartment syndrome; assay: CatWalk gait assessment in rats after CS without fasciotomy; conditions: rat, 180 min CS, no fasciotomy
Method: Animal preparation and synthesis of CORM-3 were similar to Example 3.
Complete inducement of CS occurred at about 180 minutes post induction. The animals were injected at 180 minutes and every 24 hours thereafter.
Quantitative assessment of footfalls and gait in the rats was assessed using CatWalk™, which a system for quantitative assessment of footfalls and gait in rats and mice.

[7] = rat CS model, 10 mg/kg IP at fasciotomy
[8] = rat CS model, CORM-3 versus control
[9] = rat, 2 h elevated ICP, fasciotomy, 10 mg/kg IP, 45 min reperfusion, mean±SEM

## NCC(=O)O.[C-]#[O+].[C-]#[O+].[C-]#[O+].[Cl][Ru] [CORM-3, tricarbonylchloro-glycinate-ruthenium(II)]
[1]; rat CS model, 10 mg/kg IP
  Effect on leukocyte adhesion within post-capillary venules: prevent leukocyte adhesion
  Effect on leukocyte rolling: no effect
[1]; [7]
  Effect on CS-associated microvascular perfusion changes: reversed
  Effect on CS-associated tissue injury: reversed
[1]; [8]
  Decrease in leukocyte adherence (leukocyte activation): 8 fold
  Decrease in tissue injury: 4 fold
[1]; [9]
  Leukocyte adherence in post-capillary venules: 0.6±0.3 leukocytes/30 s/1000 μm^2
  Leukocyte rolling in post-capillary venules: 3.0±0.8 leukocytes/30 s/1000 μm^2
  Muscle injury, EB/BB ratio: 0.07±0.01
[1]; rat, % of total capillaries, 2 h elevated ICP, fasciotomy, 10 mg/kg IP, 45 min reperfusion, mean±SEM
  Continuously-perfused capillaries (CPC): 57±5%
[2]; rat CS model, 10 mg/kg IP
  Effect on COHb levels: no effect
[2]; [7]
  Effect on CS-associated rise in systemic leukocyte counts: decrease the severity of this response
[2]; [9]
  COHb (carboxyhemoglobin): 1.6 ± 0.1%
  Hemoglobin: 129.5 ± 2.7 g/L
  LKC (systemic leukocyte counts): 2.3 ± 0.2^† Units × 10^9/L
[3]
  Serum TNF-α in post-fasciotomy/reperfusion period: effectively prevented; also recorded: reversed
[4]; IVVM 3 h post-fasciotomy
  Continuously-perfused capillaries (CPC): increase
  Intermittently-perfused capillaries (IPC): decrease
  Non-perfused capillaries (NPC): decrease
[4]; fasciotomy, versus iCORM-3
  Number of activated PMNs post-fasciotomy: significant decrease
[5]
  Serum TNF-α release associated with post-fasciotomy/reperfusion: prevented any TNF-α release
[6]; 10 mg/kg IP at 180 min and every 24 h, relative to iCORM-3
  Static and dynamic gait functional parameters (CatWalk): significantly improved
[6]; multi dose 10 mg/kg IP
  Weight bearing parameters (CatWalk): improvement
